Experiments:
Assay type in all cases: biochemical
GASC1 (KDM4C, JMJD2C) = target: T1, GASC1 (KDM4C, JMJD2C) (Homo sapiens, UniProt Q9H3R0); assay: Histone lysine demethylase AlphaLISA assay, GASC1; details: substrate BK9M3
T1 construct: 1-349; host or cells: E. coli
T1 sequence (Q9H3R0 1-349): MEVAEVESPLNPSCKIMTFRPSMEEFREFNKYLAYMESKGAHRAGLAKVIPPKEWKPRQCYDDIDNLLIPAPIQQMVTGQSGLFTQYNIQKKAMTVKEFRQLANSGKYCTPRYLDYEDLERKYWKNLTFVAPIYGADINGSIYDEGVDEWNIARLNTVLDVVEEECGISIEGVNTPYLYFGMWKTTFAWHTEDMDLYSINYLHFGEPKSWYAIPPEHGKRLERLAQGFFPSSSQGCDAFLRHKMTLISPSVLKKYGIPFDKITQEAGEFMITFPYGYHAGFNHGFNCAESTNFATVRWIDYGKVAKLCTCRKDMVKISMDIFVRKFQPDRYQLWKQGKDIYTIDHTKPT
Procedure, shortened: (§1)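 Per-enzyme reaction conditions apply; each enzyme sees compound for 10 min ahead of substrate addition. Bead-based AlphaLISA detection at room temperature, protected from light, gives the IC50.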

UTX (KDM6A) = target: T2, UTX (KDM6A) (Homo sapiens, UniProt O15550); assay: Histone lysine demethylase AlphaLISA assay, UTX; details: substrate BK27M3
T2 construct: 919-1401; host or cells: E. coli
T2 sequence (O15550 919-1401): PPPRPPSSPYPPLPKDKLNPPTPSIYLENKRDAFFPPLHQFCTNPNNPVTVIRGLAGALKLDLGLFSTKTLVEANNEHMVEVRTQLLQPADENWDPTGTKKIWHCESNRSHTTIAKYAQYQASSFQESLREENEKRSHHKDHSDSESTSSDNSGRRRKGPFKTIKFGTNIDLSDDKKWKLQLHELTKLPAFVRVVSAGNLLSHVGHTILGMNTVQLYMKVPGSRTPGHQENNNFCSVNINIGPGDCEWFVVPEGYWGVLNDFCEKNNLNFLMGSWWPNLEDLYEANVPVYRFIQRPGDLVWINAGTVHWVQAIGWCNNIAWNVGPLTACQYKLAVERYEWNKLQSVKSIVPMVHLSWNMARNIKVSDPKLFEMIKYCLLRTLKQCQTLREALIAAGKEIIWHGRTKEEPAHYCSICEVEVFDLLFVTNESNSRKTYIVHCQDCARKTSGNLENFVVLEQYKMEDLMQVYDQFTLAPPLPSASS
Procedure, shortened: as §1

FBXL10 (KDM2B) = target: T3, FBXL10 (KDM2B) (Homo sapiens, UniProt Q8NHM5); assay: Histone lysine demethylase AlphaLISA assay, FBXL10; details: substrate BH3K36M2
T3 construct: 1-650; purchased BPS, Bioscience, US; host or cells: Bac (baculovirus)
T3 sequence (Q8NHM5 1-650): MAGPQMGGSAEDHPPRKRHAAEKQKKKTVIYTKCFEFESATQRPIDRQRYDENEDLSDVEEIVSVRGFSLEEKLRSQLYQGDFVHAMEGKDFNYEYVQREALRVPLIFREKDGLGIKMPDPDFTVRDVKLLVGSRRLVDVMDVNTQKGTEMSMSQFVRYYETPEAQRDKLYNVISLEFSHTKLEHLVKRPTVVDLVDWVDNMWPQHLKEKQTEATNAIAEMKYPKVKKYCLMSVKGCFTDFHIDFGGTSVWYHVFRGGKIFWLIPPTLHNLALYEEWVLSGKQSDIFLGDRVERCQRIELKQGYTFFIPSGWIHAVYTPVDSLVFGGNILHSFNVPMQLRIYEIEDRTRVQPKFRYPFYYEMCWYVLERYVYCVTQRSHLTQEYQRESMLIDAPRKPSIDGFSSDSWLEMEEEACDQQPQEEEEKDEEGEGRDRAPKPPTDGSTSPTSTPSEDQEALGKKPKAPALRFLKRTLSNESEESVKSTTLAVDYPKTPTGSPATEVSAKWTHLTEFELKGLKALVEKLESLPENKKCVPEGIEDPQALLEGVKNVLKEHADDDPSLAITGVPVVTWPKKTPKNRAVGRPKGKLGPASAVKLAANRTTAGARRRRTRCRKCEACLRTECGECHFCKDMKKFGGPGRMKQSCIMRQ
Description: Example 2: Histone Lysine Demethylase AlphaLISA Assays for IC50 Value Determination
Assays are performed analogously to the protocol described by Perkin Elmer (Roy et al. Perkin Elmer Technical Note: AlphaLISA #12, April 2011).
Enzymes are dissolved in enzyme buffer and incubated for 10 min before 5 μL is added to 5 μL 3% DMSO solutions of compounds in enzyme buffer. Incubated for another 10 minutes, before 5 μL substrate solution is added and the reaction mixture is incubated at room temperature for the given period. 10 μL acceptor beads, suspended at given dilutions in Epigenetic Buffer (Perkin Elmer AL008) from stock, are added and the suspension is incubated 60 minutes in the dark at room temperature, before 10 μL suspension (at the given dilutions in Epigenetic Buffer) of streptavidin donor beads (Perkin Elmer 6760002) in Epigenetic Buffer is added. After incubation at room temperature in the dark the plates are read. Reaction conditions are seen in Table 2b.

PLU1 (KDM5B) = target: T4, PLU1 (KDM5B) (Homo sapiens, UniProt Q9UGL1); assay: Histone lysine demethylase AlphaLISA assay, PLU1; details: substrate H3K4M3B
T4 construct: 1-809; host or cells: E. coli
T4 sequence (Q9UGL1 1-809): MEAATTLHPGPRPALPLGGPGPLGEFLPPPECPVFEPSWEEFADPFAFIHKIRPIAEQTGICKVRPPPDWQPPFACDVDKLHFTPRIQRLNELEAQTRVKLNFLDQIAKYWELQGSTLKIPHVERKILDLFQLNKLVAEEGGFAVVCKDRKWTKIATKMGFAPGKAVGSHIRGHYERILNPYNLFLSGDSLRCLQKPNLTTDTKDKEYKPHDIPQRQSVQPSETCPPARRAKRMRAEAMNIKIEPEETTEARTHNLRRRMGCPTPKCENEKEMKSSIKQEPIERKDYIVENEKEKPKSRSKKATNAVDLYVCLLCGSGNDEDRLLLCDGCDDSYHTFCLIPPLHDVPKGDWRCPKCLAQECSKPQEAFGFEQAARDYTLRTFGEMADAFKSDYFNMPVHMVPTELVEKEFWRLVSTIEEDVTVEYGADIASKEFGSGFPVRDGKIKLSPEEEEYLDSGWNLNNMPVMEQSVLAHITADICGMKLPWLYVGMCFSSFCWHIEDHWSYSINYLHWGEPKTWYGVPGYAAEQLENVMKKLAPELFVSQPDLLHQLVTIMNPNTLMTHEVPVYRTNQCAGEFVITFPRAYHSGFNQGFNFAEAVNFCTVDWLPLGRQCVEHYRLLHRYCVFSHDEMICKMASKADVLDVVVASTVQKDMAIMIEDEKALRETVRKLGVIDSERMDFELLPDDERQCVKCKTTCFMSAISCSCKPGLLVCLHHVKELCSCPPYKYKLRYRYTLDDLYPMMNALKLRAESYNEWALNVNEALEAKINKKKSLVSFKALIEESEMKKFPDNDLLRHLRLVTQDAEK
Procedure, shortened: as §1

IC50 (GASC1 (KDM4C, JMJD2C)) [µM] | IC50 (UTX (KDM6A)) [µM] | IC50 (FBXL10 (KDM2B)) [µM] | IC50 (PLU1 (KDM5B)) [µM] | SMILES
0.1 to 1 | < 0.1 | ≥ 1 | 0.1 to 1 | CCCCCCCCCCCCCCCC(=O)OCC(COC(=O)CCCCCCCCCCCCCCC)OC(=O)c1ccnc(CNCC(=O)N(CC)CCN(C)C)c1 [#68, 2-(2-{[({[2-(dimethylamino)ethyl](ethyl)carbamoyl}methyl)amino]methyl}pyridine-4-carbonyloxy)-3-(hexadecanoyloxy)propyl hexadecanoate]
< 0.1 | < 0.1 | ≥ 1 | < 0.1 | CCN(CCN(C)C)C(=O)CNCc1cc(C(=O)OC)ccn1 [#70, methyl 2-{[({[2-(dimethylamino)ethyl](ethyl)carbamoyl}methyl)amino]methyl}pyridine-4-carboxylate]
< 0.1 | ≥ 1 | 0.1 to 1 | < 0.1 | CCN(CCN(C)C)C(=O)CNCc1cc(C(=O)N(C)S(C)(=O)=O)ccn1 [#71, 2-{[({[2-(dimethylamino)ethyl](ethyl)carbamoyl}methyl)amino]methyl}-N-methanesulfonyl-N-methylpyridine-4-carboxamide]
< 0.1 | – | ≥ 1 | < 0.1 | CCN(CCN(C)C)C(=O)CNCc1cc(C(=O)N2CCOC2=O)ccn1 [#72, N-[2-(dimethylamino)ethyl]-N-ethyl-2-({[4-(2-oxo-1,3-oxazolidine-3-carbonyl)pyridin-2-yl]methyl}amino)acetamide]
< 0.1 | – | ≥ 1 | < 0.1 | CCN(CCN(C)C)C(=O)CNCc1cc(C(=O)OCC(F)(F)F)ccn1 [#80, 2,2,2-trifluoroethyl 2-{[({[2-(dimethylamino)ethyl](ethyl)carbamoyl}methyl)amino]methyl}pyridine-4-carboxylate]
≥ 1 | – | 0.1 to 1 | ≥ 1 | CCCCN(CC(=O)N1CCCCC1)Cc1cc(C(=O)O)ccn1 [#82, 2-({butyl[2-oxo-2-(piperidin-1-yl)ethyl]amino}methyl)pyridine-4-carboxylic acid]
0.1 to 1 | < 0.1 | ≥ 1 | < 0.1 | CCN(CCN(C)C)C(=O)CNCc1cc(C(=O)OCCF)ccn1 [#90, 2-fluoroethyl 2-{[({[2-(dimethylamino)ethyl](ethyl)carbamoyl}methyl)amino]methyl}pyridine-4-carboxylate]

The remaining lines, values behind:

SMILES | IC50 (GASC1 (KDM4C, JMJD2C)) [µM] | IC50 (UTX (KDM6A)) [µM] | IC50 (FBXL10 (KDM2B)) [µM] | IC50 (PLU1 (KDM5B)) [µM]
O=C(O)c1ccnc(CN2CCC2)c1 [#79, 2-(azetidin-1-ylmethyl)pyridine-4-carboxylic acid] | ≥ 1 | – | ≥ 1 | ≥ 1
CCN(CC(=O)N1CCCCC1)Cc1cc(C(=O)O)ccn1 [#81, 2-({ethyl[2-oxo-2-(piperidin-1-yl)ethyl]amino}methyl)pyridine-4-carboxylic acid] | 0.1 to 1 | – | 0.1 to 1 | 0.1 to 1
O=C(O)c1ccnc(CN(CC(=O)N2CCCCC2)Cc2ccccc2)c1 [#83, 2-({benzyl[2-oxo-2-(piperidin-1-yl)ethyl]amino}methyl)pyridine-4-carboxylic acid] | ≥ 1 | – | 0.1 to 1 | ≥ 1
CC(C)CN(CC(=O)N1CCCCC1)Cc1cc(C(=O)O)ccn1 [#86, 2-{[(2-methylpropyl)[2-oxo-2-(piperidin-1-yl)ethyl]amino]methyl}pyridine-4-carboxylic acid] | ≥ 1 | < 0.1 | 0.1 to 1 | ≥ 1
CCCN(CC(=O)N1CCCCC1)Cc1cc(C(=O)O)ccn1 [#87, 2-({[2-oxo-2-(piperidin-1-yl)ethyl](propyl)amino}methyl)pyridine-4-carboxylic acid] | ≥ 1 | < 0.1 | 0.1 to 1 | 0.1 to 1
CC(C)N(CC(=O)N1CCCCC1)Cc1cc(C(=O)O)ccn1 [#88, 2-({[2-oxo-2-(piperidin-1-yl)ethyl](propan-2-yl)amino}methyl)pyridine-4-carboxylic acid] | ≥ 1 | < 0.1 | 0.1 to 1 | ≥ 1

Reference: US10221139B2, “Inhibitors of histone demethylases” (Gilead Sciences, Inc., priority 2012, dated 2019)
